From ChEMBL document CHEMBL1201861, “Genomics of Drug Sensitity in Cancer screening data, Wellcome Trust Sanger Institute”

Tests used:
Assay in all cases: cells
NCI-H1838 = type: functional, cell-based, Homo sapiens; conditions: Homo sapiens, NCI-H1838;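 also: growth inhibition of NCI-H1838 cells, determined with a cell viability readout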
Description: SANGER: Inhibition of human NCI-H1838 cell growth in a cell viability assay.

HD-MY-Z = type: functional, cell-based, Homo sapiens; conditions: Homo sapiens, HD-MY-Z;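 also: growth inhibition of HD-MY-Z cells, read out with a cell viability assay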
Description: SANGER: Inhibition of human HD-MY-Z cell growth in a cell viability assay.

NCI-H226 = type: functional, cell-based, Homo sapiens; conditions: Homo sapiens, NCI-H226;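 also: cell viability read-out used to gauge growth inhibition of the cells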
Description: SANGER: Inhibition of human NCI-H226 cell growth in a cell viability assay.

ES5 = type: functional, cell-based, Homo sapiens; conditions: Homo sapiens, ES5;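 also: growth inhibition of human ES5 cells, read out by a cell viability assay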
Description: SANGER: Inhibition of human ES5 cell growth in a cell viability assay.

EC-GI-10 = type: functional, cell-based, Homo sapiens; conditions: Homo sapiens, EC-GI-10
Description: SANGER: Inhibition of human EC-GI-10 cell growth in a cell viability assay.

ES6 = type: functional, cell-based, Homo sapiens; conditions: Homo sapiens, ES6;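 also: growth inhibition of human ES6 cells, read out with a cell viability assay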
Description: SANGER: Inhibition of human ES6 cell growth in a cell viability assay.

HCC2218 = type: functional, cell-based, Homo sapiens; conditions: Homo sapiens, HCC2218;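 also: cell viability assay read-out, with IC50 given as the concentration that inhibits growth of the cell line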
Description: SANGER: Inhibition of human HCC2218 cell growth in a cell viability assay.

COLO-800 = type: functional, cell-based, Homo sapiens; conditions: Homo sapiens, COLO-800;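 also: growth inhibition of COLO-800 cells, read out with a cell viability assay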
Description: SANGER: Inhibition of human COLO-800 cell growth in a cell viability assay.

TK-10 = type: functional, cell-based, Homo sapiens; conditions: Homo sapiens, TK-10;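 also: growth inhibition of TK-10 cells, read out in a cell viability assay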
Description: SANGER: Inhibition of human TK10 cell growth in a cell viability assay.

MOLT-16 = type: functional, cell-based, Homo sapiens; conditions: Homo sapiens, MOLT-16;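 also: growth inhibition of human MOLT-16 cells, read out with a cell viability assay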
Description: SANGER: Inhibition of human MOLT-16 cell growth in a cell viability assay.

MFM-223 = type: functional, cell-based, Homo sapiens; conditions: Homo sapiens, MFM-223
Description: SANGER: Inhibition of human MFM-223 cell growth in a cell viability assay.

KM12 = type: functional, cell-based, Homo sapiens; conditions: Homo sapiens, KM12;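 also: KM12 cell growth inhibition, read out with a cell viability assay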
Description: SANGER: Inhibition of human KM12 cell growth in a cell viability assay.

KS-1 = type: functional, cell-based, Homo sapiens; conditions: Homo sapiens, KS-1;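 also: growth inhibition of KS-1 cells, read out with a cell viability assay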
Description: SANGER: Inhibition of human KS-1 cell growth in a cell viability assay.

A3-KAW = type: functional, cell-based, Homo sapiens; conditions: Homo sapiens, A3-KAW;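 also: growth inhibition of human A3-KAW cells, read out with a cell viability assay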
Description: SANGER: Inhibition of human A3-KAW cell growth in a cell viability assay.

CAS-1 = type: functional, cell-based, Homo sapiens; conditions: Homo sapiens, CAS-1;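 also: growth inhibition of CAS-1 cells, measured with a cell viability assay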
Description: SANGER: Inhibition of human CAS-1 cell growth in a cell viability assay.

LB771-HNC = type: functional, cell-based, Homo sapiens; conditions: Homo sapiens, LB771-HNC;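 also: growth inhibition of LB771-HNC human cells, read out with a cell viability assay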
Description: SANGER: Inhibition of human LB771-HNC cell growth in a cell viability assay.

LB373-MEL-D = type: functional, cell-based, Homo sapiens; conditions: Homo sapiens, LB373-MEL-D;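 also: growth inhibition of the cell line, read out in a cell viability assay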
Description: SANGER: Inhibition of human LB373-MEL-D cell growth in a cell viability assay.

SJSA-1 = type: functional, cell-based, Homo sapiens; conditions: Homo sapiens, SJSA-1;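 also: growth inhibition of human SJSA-1 cells, read out through a cell viability measurement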
Description: SANGER: Inhibition of human SJSA-1 cell growth in a cell viability assay.

HAL-01 = type: functional, cell-based, Homo sapiens; conditions: Homo sapiens, HAL-01;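 also: growth inhibition of human HAL-01 cells, read out with a cell viability assay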
Description: SANGER: Inhibition of human HAL-01 cell growth in a cell viability assay.

EOL1 = type: functional, cell-based, Homo sapiens; conditions: Homo sapiens, EOL1;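 also: growth inhibition of EoL-1 cells, read out by a cell viability assay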
Description: SANGER: Inhibition of human EoL-1-cell cell growth in a cell viability assay.

KY821 = type: functional, cell-based, Homo sapiens; conditions: Homo sapiens, KY821;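 also: growth inhibition of human KY821 cells, read out by a cell viability assay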
Description: SANGER: Inhibition of human KY821 cell growth in a cell viability assay.

ATN-1 = type: functional, cell-based, Homo sapiens; conditions: Homo sapiens, ATN-1;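 also: growth inhibition of human ATN-1 cells, read out with a cell viability assay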
Description: SANGER: Inhibition of human ATN-1 cell growth in a cell viability assay.

SNU1 = type: functional, cell-based, Homo sapiens; conditions: Homo sapiens, SNU1;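 also: growth inhibition of human NCI-SNU-1 cells, measured with a cell viability assay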
Description: SANGER: Inhibition of human NCI-SNU-1 cell growth in a cell viability assay.

DSH1 = type: functional, cell-based, Homo sapiens; conditions: Homo sapiens, DSH1;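 also: growth inhibition of human DSH1 cells, measured with a cell viability readout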
Description: SANGER: Inhibition of human DSH1 cell growth in a cell viability assay.

HC-1 = type: functional, cell-based, Homo sapiens; conditions: Homo sapiens, HC-1;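 also: growth inhibition of HC-1 cells measured by a cell viability assay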
Description: SANGER: Inhibition of human HC-1 cell growth in a cell viability assay.

SK-NEP-1 = type: functional, cell-based, Homo sapiens; conditions: Homo sapiens, SK-NEP-1;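 also: growth inhibition of human SK-NEP-1 cells, read out by a cell viability assay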
Description: SANGER: Inhibition of human SK-NEP-1 cell growth in a cell viability assay.

ES4 = type: functional, cell-based, Homo sapiens; conditions: Homo sapiens, ES4;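 also: growth inhibition of human ES4 cells, read out by a cell viability assay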
Description: SANGER: Inhibition of human ES4 cell growth in a cell viability assay.

NCI-H69 = type: functional, cell-based, Homo sapiens; conditions: Homo sapiens, NCI-H69;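 also: growth inhibition of the cell line, read out with a cell viability assay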
Description: SANGER: Inhibition of human NCI-H69 cell growth in a cell viability assay.

KNS-42 = type: functional, cell-based, Homo sapiens; conditions: Homo sapiens, KNS-42;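 also: growth inhibition of KNS-42 cells, read out with a cell viability assay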
Description: SANGER: Inhibition of human KNS-42 cell growth in a cell viability assay.

TE-11 = type: functional, cell-based, Homo sapiens; conditions: Homo sapiens, TE-11;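 also: growth inhibition of human TE-11 cells, read out by a cell viability assay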
Description: SANGER: Inhibition of human TE-11 cell growth in a cell viability assay.

KNS-81-FD = type: functional, cell-based, Homo sapiens; conditions: Homo sapiens, KNS-81-FD;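 also: growth inhibition of KNS-81-FD cells, read out with a cell viability assay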
Description: SANGER: Inhibition of human KNS-81-FD cell growth in a cell viability assay.

CTV-1 = type: functional, cell-based, Homo sapiens; conditions: Homo sapiens, CTV-1;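 also: growth inhibition of the cell line, read out with a cell viability assay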
Description: SANGER: Inhibition of human CTV-1 cell growth in a cell viability assay.

HEL = type: functional, cell-based, Homo sapiens; conditions: Homo sapiens, HEL;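 also: growth inhibition of HEL cells, read out with a cell viability assay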
Description: SANGER: Inhibition of human HEL cell growth in a cell viability assay.

COLO-684 = type: functional, cell-based, Homo sapiens; conditions: Homo sapiens, COLO-684
Description: SANGER: Inhibition of human COLO-684 cell growth in a cell viability assay.

NTERA-2-cl-D1 = type: functional, cell-based, Homo sapiens; conditions: Homo sapiens, NTERA-2-cl-D1;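 also: inhibition of cell growth, measured with a cell viability assay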
Description: SANGER: Inhibition of human NTERA-S-cl-D1 cell growth in a cell viability assay.

TE-10 = type: functional, cell-based, Homo sapiens; conditions: Homo sapiens, TE-10;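 also: growth inhibition of TE-10 cells, measured by a cell viability assay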
Description: SANGER: Inhibition of human TE-10 cell growth in a cell viability assay.

KLE = type: functional, cell-based, Homo sapiens; conditions: Homo sapiens, KLE;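 also: growth inhibition of human KLE cells, read out with a cell viability assay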
Description: SANGER: Inhibition of human KLE cell growth in a cell viability assay.

LS-411N = type: functional, cell-based, Homo sapiens; conditions: Homo sapiens, LS-411N
NOS-1 = type: functional, cell-based, Homo sapiens; conditions: Homo sapiens, NOS-1;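 also: growth inhibition of the human NOS-1 cell line, read out with a cell viability assay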
Description: SANGER: Inhibition of human NOS-1 cell growth in a cell viability assay.

J-RT3-T3-5 = type: functional, cell-based, Homo sapiens; conditions: Homo sapiens, J-RT3-T3-5;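 also: cell viability assay measuring growth inhibition of human J-RT3-T3-5 cells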
Description: SANGER: Inhibition of human J-RT3-T3-5 cell growth in a cell viability assay.

EKVX = type: functional, cell-based, Homo sapiens; conditions: Homo sapiens, EKVX;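 also: growth inhibition of human EKVX cells, read out with a cell viability assay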
Description: SANGER: Inhibition of human EKVX cell growth in a cell viability assay.

LS-1034 = type: functional, cell-based, Homo sapiens; conditions: Homo sapiens, LS-1034
Description: SANGER: Inhibition of human LS-1034 cell growth in a cell viability assay.

ES3 = type: functional, cell-based, Homo sapiens; conditions: Homo sapiens, ES3;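 also: growth inhibition of ES3 cells, read out with a cell viability assay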
Description: SANGER: Inhibition of human ES3 cell growth in a cell viability assay.

SK-LMS-1 = type: functional, cell-based, Homo sapiens; conditions: Homo sapiens, SK-LMS-1;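 also: growth inhibition of human SK-LMS-1 cells, read out with a cell viability assay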
Description: SANGER: Inhibition of human SK-LMS-1 cell growth in a cell viability assay.

D283 Med = type: functional, cell-based, Homo sapiens; conditions: Homo sapiens, D283 Med
Description: SANGER: Inhibition of human D-283MED cell growth in a cell viability assay.

MV4-11 = type: functional, cell-based, Homo sapiens, MV-4-11; conditions: Homo sapiens, MV4-11;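 also: cell viability readout measuring growth inhibition of human MV-4-11 cells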
Description: SANGER: Inhibition of human MV-4-11 cell growth in a cell viability assay.

NCI-H720 = type: functional, cell-based, Homo sapiens; conditions: Homo sapiens, NCI-H720;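 also: growth inhibition of human NCI-H720 cells determined by a cell viability assay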
Description: SANGER: Inhibition of human NCI-H720 cell growth in a cell viability assay.

SW684 = type: functional, cell-based, Homo sapiens; conditions: Homo sapiens, SW684;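 also: growth inhibition of human SW684 cells, measured by a cell viability assay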
Description: SANGER: Inhibition of human SW684 cell growth in a cell viability assay.

LU-139 = type: functional, cell-based, Homo sapiens; conditions: Homo sapiens, LU-139
Description: SANGER: Inhibition of human LU-139 cell growth in a cell viability assay.

`CO[C@H]1C[C@@H]2CC[C@@H](C)[C@@](O)(O2)C(=O)C(=O)N2CCCC[C@H]2C(=O)O[C@H]([C@H](C)C[C@@H]2CC[C@@H](OC(=O)C(C)(CO)CO)[C@H](OC)C2)CC(=O)[C@H](C)/C=C(\C)[C@@H](O)[C@@H](OC)C(=O)[C@H](C)C[C@H](C)/C=C/C=C/C=C/1C` [TEMSIROLIMUS] gave an IC50 (NCI-H1838) of over 200 nM, an IC50 (HD-MY-Z) of 21.6 nM and an IC50 (NCI-H226) of over 200 nM. It also gave an IC50 (ES5) of 61.4 nM, an IC50 (EC-GI-10) of over 200 nM and an IC50 (ES6) of over 200 nM. For the same compound, the IC50 (HCC2218) was over 200 nM, the IC50 (COLO-800) was 129 nM and the IC50 (TK-10) was over 200 nM. It also gave an IC50 (MOLT-16) of 12.8 nM, an IC50 (MFM-223) of over 200 nM and an IC50 (KM12) of over 200 nM. The IC50 (KS-1) was 63.5 nM, the IC50 (A3-KAW) was 10.4 nM and the IC50 (CAS-1) was over 200 nM. It also gave an IC50 (LB771-HNC) of over 200 nM, an IC50 (LB373-MEL-D) of over 200 nM and an IC50 (SJSA-1) of 143 nM. It also gave an IC50 (HAL-01) of over 200 nM, an IC50 (EOL1) of 16.1 nM and an IC50 (KY821) of over 200 nM. The IC50 (ATN-1) was over 200 nM, the IC50 (SNU1) was 4.81 nM and the IC50 (DSH1) was over 200 nM. For the same compound, the IC50 (HC-1) was 101 nM, the IC50 (SK-NEP-1) was 1.49 nM and the IC50 (ES4) was 37.8 nM. For the same compound, the IC50 (NCI-H69) was over 200 nM, the IC50 (KNS-42) was over 200 nM and the IC50 (TE-11) was over 200 nM. It also gave an IC50 (KNS-81-FD) of 138 nM, an IC50 (CTV-1) of over 200 nM and an IC50 (HEL) of 158 nM. The IC50 (COLO-684) was 13.3 nM, the IC50 (NTERA-2-cl-D1) was 20.7 nM and the IC50 (TE-10) was over 200 nM. The IC50 (KLE) was over 200 nM, the IC50 (LS-411N) was over 200 nM and the IC50 (NOS-1) was over 200 nM. For the same compound, the IC50 (J-RT3-T3-5) was 12.4 nM, the IC50 (EKVX) was over 200 nM and the IC50 (LS-1034) was over 200 nM. The IC50 (ES3) was 85.1 nM, the IC50 (SK-LMS-1) was over 200 nM and the IC50 (D283 Med) was over 200 nM. It also gave an IC50 (MV4-11) of 18.9 nM, an IC50 (NCI-H720) of 9.62 nM and an IC50 (SW684) of over 200 nM. It also gave an IC50 (LU-139) of 53.3 nM.
